The results in this text go back to ChEMBL document CHEMBL1201862, “PubChem BioAssay data set” (2004).

Among the test systems are TK-10; HCC 2998; SNB-19; UACC-62; NCI-H522; U-251; A498; RPMI-8226; NCI-H460; SR; SW-620; KM12; K562; SK-MEL-2; COLO 205; CCRF-CEM; MCF7; NCI-H226; HOP-62; NCI/ADR-RES.
Holding throughout (test): NCI tumour cell line growth inhibition, 48 h

Where “and” joins values, the source holds several entries; their conditions need not be identical. Identical values can stand only once.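 Where inhibition never reached the appropriate level, the endpoint shown equals the highest concentration tested. Otherwise, values were interpolated linearly from a five-concentration, 48-hour dose response in 96-well plates. GI50 marks 50% less growth.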 Calls of active or inactive are those of the source. Rule as the data show it: active = GI50 up to about 1.1 µM and inactive = higher.

As to `C/C(CCOC1CCCCO1)=C(\C)[Si](C)(C)C` (stereo not given), the GI50 in the assay with TK-10, in the assay with HCC 2998, in the assay on SNB-19, in the assay with UACC-62, in the assay with NCI-H522 and in the assay on U-251 was > 100 µM (inactive) throughout. The GI50 in the assay with A498, in the assay with RPMI-8226, with NCI-H460, in the assay on SR, in the assay on SW-620 and with KM12 was > 100 µM (inactive) each time. Besides, the GI50 was > 100 µM (inactive) in the assay on K562, > 100 µM (inactive) in the assay on SK-MEL-2, > 100 µM (inactive) in the assay on COLO 205 and 65.5 µM (inactive) in the assay on CCRF-CEM.
As to `CN1C(=O)c2ccccc2NC(=O)c2cnn(C)c21`, the GI50 with MCF7, with HCC 2998, in the assay with NCI-H226, in the assay on HOP-62, in the assay on SNB-19 and in the assay with UACC-62 was > 100 µM (inactive) in each case. The GI50 with NCI-H522, with U-251, in the assay with A498, in the assay on RPMI-8226, with NCI-H460 and with SW-620 was > 100 µM (inactive) each time. In addition, the GI50 in the assay with NCI/ADR-RES, in the assay on KM12, with K562, with SK-MEL-2, with COLO 205 and in the assay with CCRF-CEM was > 100 µM (inactive) throughout.
Turning to `CCN(CC)CCn1c(=O)c2c(C)c3oc4ccccc4oc3c(C)c2c1=O`, the GI50 in the assay with MCF7, in the assay on TK-10, in the assay on HCC 2998, in the assay on NCI-H226, in the assay on HOP-62 and in the assay on SNB-19 was > 100 µM (inactive) throughout. Further, the GI50 in the assay on UACC-62, in the assay on NCI-H522, with U-251, with A498, in the assay on RPMI-8226 and in the assay with NCI-H460 was > 100 µM (inactive) in each case. Further, the GI50 with SW-620, in the assay on NCI/ADR-RES, with KM12, with K562, with SK-MEL-2 and in the assay with COLO 205 was > 100 µM (inactive) each time. For the same compound, the GI50 in the assay with CCRF-CEM is > 100 µM (inactive).
Take `Nc1ccn(C2OC(COP(=O)(O)Oc3ccccc3)C(O)C2O)c(=O)n1` (stereo not given): the GI50 in the assay with MCF7 is 13 µM (inactive); in the assay on HCC 2998 it was > 100 µM (inactive); in the assay with NCI-H226, > 100 µM (inactive); with SNB-19, > 59.4 µM (inactive); with UACC-62, 56.5 µM (inactive); in the assay on NCI-H522, 16.6 µM (inactive). Also, the GI50 with U-251 is 44.6 µM (inactive); in the assay with A498, 4.06 µM (inactive); in the assay with RPMI-8226 it was > 100 µM (inactive); in the assay on NCI-H460, 2.6 µM (inactive); with SW-620 it was > 100 µM (inactive); with NCI/ADR-RES, 16.7 µM (inactive). Further, the GI50 with KM12 was > 100 µM (inactive); in the assay on K562, > 70.6 µM (inactive); in the assay with SK-MEL-2, > 100 µM (inactive); in the assay on COLO 205, 61.9 µM (inactive); with CCRF-CEM it was 1.01 µM (active).
As to `C=CCCCC12CCCc3cccc(c31)NC2=O` (stereo not given), the GI50 is 19.6 µM (inactive) with TK-10; 16.4 µM (inactive) in the assay with HCC 2998; 20.6 µM (inactive) with NCI-H226; 34 µM (inactive) with HOP-62; 23.4 µM (inactive) with SNB-19; 16.8 µM (inactive) in the assay with UACC-62. For the same compound, the GI50 with NCI-H522 was 16.9 µM (inactive); with U-251 it was 22 µM (inactive); in the assay with A498, 19.6 µM (inactive); in the assay with RPMI-8226, 19.7 µM (inactive); in the assay on NCI-H460, 16.8 µM (inactive); in the assay with SR it was 20.8 µM (inactive). Also, the GI50 was 20 µM (inactive) in the assay with SW-620; 17.4 µM (inactive) in the assay with KM12; 22 µM (inactive) in the assay with K562; 23.2 µM (inactive) in the assay on SK-MEL-2; 20.2 µM (inactive) in the assay on COLO 205; 16.9 µM (inactive) in the assay with CCRF-CEM.
On to `O=c1sc2ccccc2n1CC1CS1` (stereo not given), for which the GI50 with TK-10, in the assay on HCC 2998, in the assay on NCI-H226, in the assay with HOP-62, in the assay on SNB-19 and with UACC-62 was > 100 µM (inactive) in each case. Moreover, the GI50 in the assay on NCI-H522, in the assay with RPMI-8226, in the assay with NCI-H460, in the assay on SR, in the assay with SW-620 and with KM12 was > 100 µM (inactive) each time. Moreover, the GI50 in the assay on K562, in the assay with SK-MEL-2, in the assay with COLO 205 and with CCRF-CEM was > 100 µM (inactive) throughout.
For the compound `O=C(Nc1nnc(S)[nH]1)C(=O)C(c1cnc2ccc([N+](=O)[O-])cc2n1)[N+](=O)[O-]` (stereo not given), the GI50 in the assay on TK-10, with HCC 2998, in the assay with NCI-H226, in the assay on HOP-62, in the assay on SNB-19 and in the assay on UACC-62 was > 100 µM (inactive) throughout. In addition, the GI50 in the assay on NCI-H522 was 16.2 µM (inactive); in the assay with U-251, > 100 µM (inactive); in the assay on A498, > 100 µM (inactive); with RPMI-8226, 89.7 µM (inactive); with NCI-H460 it was > 100 µM (inactive); in the assay with SR it was > 100 µM (inactive). In addition, the GI50 in the assay with SW-620, with KM12, in the assay on K562, in the assay on COLO 205 and with CCRF-CEM was > 100 µM (inactive) each time.
As to `c1cc(CNC2C3CCC(C3)C2c2c[nH]c3ccccc23)cc(CNC2C3CCC(C3)C2c2c[nH]c3ccccc23)c1` (stereo not given), the GI50 in the assay with MCF7 was 0.205 µM (active); in the assay with TK-10 it was 1.73 µM (inactive) and 1.94 µM (inactive); in the assay with HCC 2998 it was 127 nM (active) and 145 nM (active); with NCI-H226 it was 2 µM (inactive) and 2.07 µM (inactive); with HOP-62 it was 1.85 µM (inactive) and 1.77 µM (inactive); in the assay with SNB-19 it was 1.41 µM (inactive) and 1.39 µM (inactive). The GI50 was 1.81 µM (inactive) and 1.74 µM (inactive) in the assay on UACC-62; 1.12 µM (active) and 1.36 µM (inactive) with NCI-H522; 619 nM (active) and 615 nM (active) in the assay with U-251; 0.207 µM (active) in the assay on RPMI-8226; 366 nM (active) and 405 nM (active) with NCI-H460; 258 nM (active) and 186 nM (active) with SR. Moreover, the GI50 with KM12 was 596 nM (active) and 759 nM (active); in the assay with K562, 155 nM (active) and 203 nM (active); in the assay with SK-MEL-2 it was 1.57 µM (inactive) and 1.91 µM (inactive); in the assay with CCRF-CEM, 195 nM (active) and 325 nM (active).
For `CN(C)C(=S)N/N=C(\C(=N/NC(=S)N(C)C)c1ccccn1)c1ccccn1`, the GI50 in the assay with MCF7 is 1.66 µM (inactive); in the assay on TK-10 it was 8.11 µM (inactive); with HCC 2998, 7.55 µM (inactive); with NCI-H226, 12.6 µM (inactive); with HOP-62, 10.9 µM (inactive); in the assay on SNB-19, 12.8 µM (inactive). The GI50 in the assay on UACC-62 was 6.3 µM (inactive); in the assay with NCI-H522, 2.65 µM (inactive); in the assay with U-251, 3.99 µM (inactive); in the assay with A498, 14.8 µM (inactive); with RPMI-8226 it was 5.3 µM (inactive); in the assay on NCI-H460, 2.56 µM (inactive). Further, the GI50 with SW-620 is 6.24 µM (inactive); in the assay on NCI/ADR-RES it was 20.7 µM (inactive); in the assay with KM12, 4.82 µM (inactive); in the assay on K562, 8.28 µM (inactive); in the assay on SK-MEL-2, 10.7 µM (inactive); in the assay with COLO 205, 2.17 µM (inactive).
For the compound `CN(C)CCNc1ccc(NCC[N+](C)(C)Cc2ccc([N+](=O)[O-])cc2)c2c1C(=O)c1ccccc1C2=O`, the GI50 in the assay with MCF7 is 11.9 µM (inactive); in the assay with TK-10, > 25 µM (inactive); in the assay on NCI-H226 it was 23.4 µM (inactive); in the assay with HOP-62, 19.8 µM (inactive); with UACC-62, 18.5 µM (inactive); in the assay on NCI-H522 it was 8.73 µM (inactive). Further, the GI50 is 19.4 µM (inactive) in the assay on U-251; 17.5 µM (inactive) in the assay with A498; 10.8 µM (inactive) in the assay with RPMI-8226; 6.15 µM (inactive) in the assay with SR; 13.3 µM (inactive) in the assay with SW-620; > 25 µM (inactive) in the assay with NCI/ADR-RES. Besides, the GI50 with KM12 was 13.8 µM (inactive); with SK-MEL-2, > 25 µM (inactive); with COLO 205, 7.28 µM (inactive).
For `CC1(C)Cc2nnsc2C2=C1C(=O)CCS2`, the GI50 in the assay with TK-10, in the assay with HCC 2998, in the assay on HOP-62, in the assay on SNB-19, in the assay on UACC-62 and in the assay on NCI-H522 was > 100 µM (inactive) throughout. Also, the GI50 in the assay on U-251 was 60.4 µM (inactive); in the assay on RPMI-8226, > 100 µM (inactive); in the assay with NCI-H460 it was > 100 µM (inactive); with SW-620, > 100 µM (inactive); with KM12, > 100 µM (inactive); in the assay with K562, > 100 µM (inactive). In addition, the GI50 in the assay on SK-MEL-2, with COLO 205 and with CCRF-CEM was > 100 µM (inactive) in each case.
